Consider one molecule from US9868736B2, “Deubiquitinase inhibitors and methods for use of the same” (THE REGENTS OF THE UNIVERSITY OF MICHIGAN, priority 2013, dated 2018).

SMILES strings stand for the structures.

Assay [1] concerns murine norovirus, Tulane virus, Listeria monocytogenes, Toxoplasma gondii, Norwalk virus. Kind of assay: inhibition of category A and B pathogens.
For assay [2], the system named is vemurafenib sensitive and resistant A375 melanoma cells. Kind of assay: in vitro anti-tumor efficacy in A375 melanoma cells. Type of assay: cell-based. The settings on record: Homo sapiens, A-375. From the text:
(§1) Similar results were obtained in A375R Usp5 KD cells treated with a MEK inhibitor.

In the next assay the target is T1, Usp5 (Homo sapiens, UniProt P45974).
T1 construct: endogenous in cells; host or cells: A375 and A375R melanoma cells (also SK-Mel28)
T1 sequence (P45974 1-858): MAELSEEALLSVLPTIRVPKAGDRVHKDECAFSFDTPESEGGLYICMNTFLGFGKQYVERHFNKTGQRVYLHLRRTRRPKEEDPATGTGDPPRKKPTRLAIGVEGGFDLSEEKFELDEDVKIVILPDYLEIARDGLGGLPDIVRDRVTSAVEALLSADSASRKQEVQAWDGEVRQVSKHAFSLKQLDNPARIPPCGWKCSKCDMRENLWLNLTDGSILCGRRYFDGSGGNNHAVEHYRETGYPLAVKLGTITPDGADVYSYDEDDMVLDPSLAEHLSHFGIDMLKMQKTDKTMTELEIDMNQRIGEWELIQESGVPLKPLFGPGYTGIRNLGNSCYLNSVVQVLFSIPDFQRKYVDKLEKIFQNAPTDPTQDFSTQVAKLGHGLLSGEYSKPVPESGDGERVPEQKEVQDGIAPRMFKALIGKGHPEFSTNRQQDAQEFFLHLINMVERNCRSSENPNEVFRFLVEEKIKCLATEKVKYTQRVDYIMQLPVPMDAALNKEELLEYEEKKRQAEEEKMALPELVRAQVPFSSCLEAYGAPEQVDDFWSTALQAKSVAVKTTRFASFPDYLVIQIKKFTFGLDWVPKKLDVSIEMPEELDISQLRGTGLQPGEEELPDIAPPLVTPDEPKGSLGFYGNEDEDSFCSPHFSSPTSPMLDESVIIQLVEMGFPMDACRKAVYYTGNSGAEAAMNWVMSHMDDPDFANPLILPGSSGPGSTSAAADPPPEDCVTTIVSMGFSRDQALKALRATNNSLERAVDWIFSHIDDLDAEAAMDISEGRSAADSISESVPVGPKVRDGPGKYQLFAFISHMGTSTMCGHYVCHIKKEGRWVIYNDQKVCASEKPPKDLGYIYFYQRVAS
As to the kind of experiment: DUB activity (HA-Ub labelling) in treated cells. The format is cell-based. As for the experimental part:
DUB activity was assessed by HA blotting and confirmed by monitoring a DUBs mobility shift due to its covalent modification with HA-Ub. DUB inhibition was detected in vemurafenib-responsive (SK-Mel28 and A375) cells and we noted a consistent change in a DUB (100 kDa) identified as Usp5 by LC/MS/MS of the excised protein band (data not shown) and direct immunoblotting. […] DUB activity was also compared in control and BRAF knockdown (KD) cells. BRAF shRNA reduced pERK levels and Usp5 activity.
as §1

As usually defined, the IC50 is the point on the concentration scale where inhibition reaches its midpoint. Lower therefore signals higher potency.

For `CCCC(NC(=O)/C(C#N)=C/c1nc(Cl)ccc1Cl)c1ccc(OCCN2CCOCC2)cc1` (stereo not shown) [Compound G9, (E)-2-Cyano-3-(3,6-dichloropyridin-2-yl)-N-(1-(4-(2-morpholinoethoxy)phenyl)butyl)acrylamide], the “inhibition of category A and B pathogens and related family members” value in assay [1] was “potent inhibitor”. In addition, half-maximal inhibition in assay [2] (IC50) was put at 1 µM. The Usp5 inhibition entry on Usp5 (myeloma (MM1.S) cells, various concentrations, FIG. 10) is “inhibits Usp9x and Usp5”. At Usp5 (vemurafenib sensitive and resistant A375 cells), the Usp5 activity entry is listed as “reduced Usp5 (and Usp9x) activity in both cell types”.
